Measurements as given in ChEMBL document CHEMBL1129835, “Selective cytotoxicity of certain 9-substituted ellipticines for leukemia cells in a variety of leukemia cell cultures” (1997).

Legend:
NCI-H23 = experiment: Cytotoxicity exhibited by the compound for total growth inhibition of non-small cell lung cancer NCI-H23 cell line; type: functional; conditions: Homo sapiens
MOLT-4 = experiment: Effective dose to show cytotoxicity against leukemia MOLT-4 cell line was determined; type: functional; conditions: Homo sapiens, read-out: ED50 (the source's name)
[1] = tested on: MDA-MB-435 (Homo sapiens); experiment: Effective dose to show cytotoxicity against breast cancer MDA-MB-435 cell line was determined; conditions: read-out: ED50 (the source's name)
K562 [2] = experiment: Concentration for 50% cell kill against leukemia K-562 cell line was determined; type: functional; conditions: Homo sapiens, read-out: LC50 (the source's name)
KM12 [3] = experiment: Concentration for 50% cell kill against colon cancer KM-12 cell line was determined; type: functional; conditions: Homo sapiens, read-out: LC50 (the source's name)
OVCAR-3 [4] = experiment: Concentration for 50% cell kill against ovarian cancerOVCAR-3 cell line was determined; type: functional; conditions: Homo sapiens, read-out: LC50 (the source's name)
LOX IMVI [5] = experiment: Cytotoxicity exhibited by the compound for total growth inhibition of melanoma LOX IMVI cell line; type: functional; conditions: Homo sapiens
LOX IMVI [6] = experiment: The compound was evaluated for cytotoxicity against LOX-IMVI melanoma cell line; type: functional; conditions: Homo sapiens
COLO 205 [7] = experiment: Concentration for 50% cell kill against colon cancer COLO 205 cell line was determined; type: functional; conditions: Homo sapiens, read-out: LC50 (the source's name)
Malme-3M = experiment: Concentration for 50% cell kill against melanoma MALME-3M cell line was determined; type: functional; conditions: Homo sapiens, read-out: LC50 (the source's name)
DU-145 = experiment: Concentration for 50% cell kill against prostate cancerDU-145 cell line was determined; type: functional; conditions: Homo sapiens, read-out: LC50 (the source's name)
PC-3 [8] = experiment: Concentration for 50% cell kill against prostate cancerPC-3 cell line was determined; type: functional; conditions: Homo sapiens, read-out: LC50 (the source's name)
PC-3 [9] = experiment: Effective dose to show cytotoxicity against prostate cancer PC-3 cell line was determined; type: functional; conditions: Homo sapiens, read-out: ED50 (the source's name)
IGROV-1 [10] = experiment: Concentration for 50% cell kill against ovarian cancer IGROV 1 cell line was determined; type: functional; conditions: Homo sapiens, read-out: LC50 (the source's name)
OVCAR-3 [11] = experiment: Effective dose to show cytotoxicity against ovarian cancer OVCAR-3 cell line was determined; type: functional; conditions: Homo sapiens, read-out: ED50 (the source's name)
CAKI-1 [12] = experiment: Effective dose to show cytotoxicity against renal cancerCAKI-1 cell line was determined; type: functional; conditions: Homo sapiens, read-out: ED50 (the source's name)
COLO 205 [13] = experiment: Cytotoxicity exhibited by the compound for total growth inhibition of colon cancer COLO 205 cell line; type: functional; conditions: Homo sapiens
NCI-H522 = experiment: Effective dose to show cytotoxicity against non-small cell lung cancer NCI-H522 cell line was determined; type: functional; conditions: Homo sapiens, read-out: ED50 (the source's name)
SN12C [14] = experiment: Concentration for 50% cell kill against renal cancer SN12C cell line was determined; type: functional; conditions: Homo sapiens, read-out: LC50 (the source's name)
RPMI-8226 = experiment: Effective dose to show cytotoxicity against leukemia RPMI-8226 cell line was determined; type: functional; conditions: Homo sapiens, read-out: ED50 (the source's name)
PC-3 [15] = experiment: Cytotoxicity exhibited by the compound for total growth inhibition of prostate cancer PC-3 cell line; type: functional; conditions: Homo sapiens
SR [16] = experiment: Effective dose to show cytotoxicity against leukemia SR cell line was determined; type: functional; conditions: Homo sapiens, read-out: ED50 (the source's name)
K562 [17] = experiment: Effective dose to show cytotoxicity against leukemia K-562 cell line was determined; type: functional; conditions: Homo sapiens, read-out: ED50 (the source's name)
[18] = tested on: MDA-MB-435 (Homo sapiens); experiment: Cytotoxicity exhibited by the compound for total growth inhibition of breast cancer MDA-MB-435 cell line
MDA-N [19] = experiment: The compound was evaluated for cytotoxicity against MDA-N breast cancer cell line; type: functional; conditions: Homo sapiens
SNB-75 [20] = experiment: Cytotoxicity exhibited by the compound for total growth inhibition of CNS cancer SNB-75 cell line; type: functional; conditions: Homo sapiens
K562 [21] = experiment: Cytotoxicity exhibited by the compound for total growth inhibition of leukemia K-562 cell line; type: functional; conditions: Homo sapiens
HCT-116 = experiment: Effective dose to show cytotoxicity against colon cancer HCT116 cell line was determined; type: functional; conditions: Homo sapiens, read-out: ED50 (the source's name)
IGROV-1 [22] = experiment: Cytotoxicity exhibited by the compound for total growth inhibition of ovarian cancer IGROV 1 cell line; type: functional; conditions: Homo sapiens
SNB-75 [23] = experiment: Effective dose to show cytotoxicity against CNS cancer SNB-75 cell line was determined; type: functional; conditions: Homo sapiens, read-out: ED50 (the source's name)
SN12C [24] = experiment: Cytotoxicity exhibited by the compound for total growth inhibition of renal cancer SN12C cell line; type: functional; conditions: Homo sapiens
SNB-75 [25] = experiment: Concentration for 50% cell kill against CNS cancer SNB-75 cell line was determined; type: functional; conditions: Homo sapiens, read-out: LC50 (the source's name)
KM12 [26] = experiment: Effective dose to show cytotoxicity against colon cancer KM-12 cell line was determined; type: functional; conditions: Homo sapiens, read-out: ED50 (the source's name)
M14 [27] = experiment: Effective dose to show cytotoxicity against melanoma M14 cell line was determined; type: functional; conditions: Homo sapiens, read-out: ED50 (the source's name)
NCI-H322M = experiment: Effective dose to show cytotoxicity against non-small cell lung cancer NCI-H322M cell line was determined; type: functional; conditions: Homo sapiens, read-out: ED50 (the source's name)
MDA-N [28] = experiment: Cytotoxicity exhibited by the compound for total growth inhibition of breast cancer MDA-N cell line; type: functional; conditions: Homo sapiens
RXF 393 [29] = experiment: Concentration for 50% cell kill against renal cancer RXF 393 cell line was determined; type: functional; conditions: Homo sapiens, read-out: LC50 (the source's name)
MDA-N [30] = experiment: Concentration for 50% cell kill against breast cancer MDA-N cell line was determined; type: functional; conditions: Homo sapiens, read-out: LC50 (the source's name)
SNB-19 = experiment: Effective dose to show cytotoxicity against CNS cancer SNB-19 cell line was determined; type: functional; conditions: Homo sapiens, read-out: ED50 (the source's name)
RXF 393 [31] = experiment: Cytotoxicity exhibited by the compound for total growth inhibition of renal cancer RXF 393 cell line; type: functional; conditions: Homo sapiens
T47D = experiment: Cytotoxicity exhibited by the compound for total growth inhibition of breast cancer T-47D cell line; type: functional; conditions: Homo sapiens
U-251 [32] = experiment: Cytotoxicity exhibited by the compound for total growth inhibition of CNS cancer U251 cell line; type: functional; conditions: Homo sapiens
SN12C [33] = experiment: Effective dose to show cytotoxicity against renal cancer SN12C cell line was determined; type: functional; conditions: Homo sapiens, read-out: ED50 (the source's name)
SR [34] = experiment: Cytotoxicity exhibited by the compound for total growth inhibition of leukemia SR cell line; type: functional; conditions: Homo sapiens
CAKI-1 [35] = experiment: Cytotoxicity exhibited by the compound for total growth inhibition of renal cancer CAKI-1 cell line; type: functional; conditions: Homo sapiens
U-251 [36] = experiment: Concentration for 50% cell kill against CNS cancer U251 cell line was determined; type: functional; conditions: Homo sapiens, read-out: LC50 (the source's name)
M14 [37] = experiment: Concentration for 50% cell kill against melanoma M14 cell line was determined; type: functional; conditions: Homo sapiens, read-out: LC50 (the source's name)

For `Cc1c2ccncc2c(C)c2c1[nH]c1ccc(CO)cc12`, the TGI (NCI-H23) was 9.44 µM, the EC50 (MOLT-4) was 0.01 µM and the EC50 [1] was 0.24 µM. For the same molecule, the CC50 (K562 [2]) was over 100 µM, the CC50 (KM12 [3]) was 7.38 µM and the CC50 (OVCAR-3 [4]) was 46.2 µM. It also gave a TGI (LOX IMVI [5]) of 3.03 µM, a GI50 (LOX IMVI [6]) of 0.37 µM and a CC50 (COLO 205 [7]) of 10.2 µM. It also gave a CC50 (Malme-3M) of 0.82 µM, a CC50 (DU-145) of 35 µM and a CC50 (PC-3 [8]) of 23.3 µM. The EC50 (PC-3 [9]) was 0.45 µM, the CC50 (IGROV-1 [10]) was 62 µM and the EC50 (OVCAR-3 [11]) was 0.7 µM. It also gave an EC50 (CAKI-1 [12]) of 0.37 µM, a TGI (COLO 205 [13]) of 2.2 µM and an EC50 (NCI-H522) of 0.3 µM. It also gave a CC50 (SN12C [14]) of 1.91 µM, an EC50 (RPMI-8226) of 0.03 µM and a TGI (PC-3 [15]) of 3.6 µM. It also gave an EC50 (SR [16]) of 0.04 µM, an EC50 (K562 [17]) of 0.03 µM and a TGI [18] of 1.61 µM. It also gave a GI50 (MDA-N [19]) of 0.35 µM, a TGI (SNB-75 [20]) of 2.63 µM and a TGI (K562 [21]) of 0.11 µM. The EC50 (HCT-116) was 0.05 µM, the TGI (IGROV-1 [22]) was 11.7 µM and the EC50 (SNB-75 [23]) was 0.49 µM. For the same molecule, the TGI (SN12C [24]) was 3.47 µM, the CC50 (SNB-75 [25]) was 14.9 µM and the EC50 (KM12 [26]) was 0.16 µM. For the same molecule, the EC50 (M14 [27]) was 0.6 µM, the EC50 (NCI-H322M) was 0.62 µM and the TGI (MDA-N [28]) was 1.69 µM. The CC50 (RXF 393 [29]) was 9.43 µM, the CC50 (MDA-N [30]) was 4.33 µM and the EC50 (SNB-19) was 0.21 µM. For the same molecule, the TGI (RXF 393 [31]) was 3.89 µM, the TGI (T47D) was 18.4 µM and the TGI (U-251 [32]) was over 100 µM. For the same molecule, the EC50 (SN12C [33]) was 0.22 µM, the TGI (SR [34]) was 0.49 µM and the TGI (CAKI-1 [35]) was 13.4 µM. It also gave a CC50 (U-251 [36]) of over 100 µM and a CC50 (M14 [37]) of 34.1 µM.
